Data taken from patent US20190307843A1, “SINGLE DOSE METHODS FOR PREVENTING AND TREATING FUNGAL INFECTIONS” (Cidara Therapeutics, Inc., priority 2016, published 2019).
Values after ≈ are worked out from the molar mass of the structure shown. Like-named read-outs stand apart in the source and are kept apart here.

What was measured:
[1] = tested on: C. auris; test: Murine model of disseminated candidiasis, C. auris infection, kidney CFU and survival; assay type: in vivo, Candida auris
[2] = tested on: C. albicans SC-5314 biofilms; test: Mature phase biofilms (treatment), XTT metabolic activity and CSLM; assay type: cell-based, Candida albicans
[3] = tested on: Candida auris strains; test: Candida auris antifungal susceptibility testing (CLSI M27-A3), 38 strains; assay type: cell-based; conditions: for MIC: Candidozyma auris

Compound: OC(Cn1cncn1)(Cn1cncn1)c1ccc(F)cc1F [fluconazole]
- percent survival at the end of the study [1]: 0%
- thickness of biofilms ([2]; fluconazole): no effect
- effect on mature biofilms ([2]; fluconazole 1 and 4 μg/ml, 24 h): did not affect Candida biofilms
- MIC ([3]; 24 h, strain 1 VPCI 669/P/12): > 128 µg/mL
- MIC ([3]; 24 h, strain 2 VCPI 671/P/12): > 128 µg/mL
- MIC ([3]; 24 h, strain 3 VCPI 674/P/12): > 128 µg/mL
- MIC ([3]; 24 h, strain 4 VCPI 683/P/12): > 128 µg/mL
- MIC ([3]; 24 h, strain 5 VCPI 692/P/12): > 128 µg/mL
- MIC ([3]; 24 h, strain 6 VCPI 712/P/12): > 128 µg/mL
- MIC ([3]; 24 h, strain 7 VCPI 471/P/13): > 128 µg/mL
- MIC ([3]; 24 h, strain 8 VCPI 475/P/13): > 128 µg/mL
- MIC ([3]; 24 h, strain 9 VCPI 478/P/13): > 128 µg/mL
- MIC ([3]; 24 h, strain 10 VCPI 479/P/13): > 128 µg/mL
- MIC ([3]; 24 h, strain 11 VCPI 480/P/13): > 128 µg/mL
- MIC ([3]; 24 h, strain 12 VCPI 482/P/13): > 128 µg/mL
- MIC ([3]; 24 h, strain 13 VCPI 483/P/13): > 128 µg/mL
- MIC ([3]; 24 h, strain 14 VCPI 1130/P/13, 24 h, read-out: MIC): 32 µg/mL (≈ 104 µM)
- MIC ([3]; 24 h, strain 15 VCPI 1132/P/13): 128 µg/mL (≈ 418 µM)
- MIC ([3]; 24 h, strain 16 VCPI 1133/P/13): > 128 µg/mL
- MIC ([3]; 24 h, strain 17 VCPI 105/P/14): 128 µg/mL (≈ 418 µM)
- MIC ([3]; 24 h, strain 18 VCPI 107/P/14, 24 h, read-out: MIC): 64 µg/mL (≈ 209 µM)
- MIC ([3]; 24 h, strain 19 VCPI 510/P/14): > 128 µg/mL
- MIC ([3]; 24 h, strain 20 VCPI 511/P/14): 128 µg/mL (≈ 418 µM)
- MIC ([3]; 24 h, strain 21 VCPI 512/P/14, 24 h, read-out: MIC): 16 µg/mL (≈ 52.2 µM)
- MIC ([3]; 24 h, strain 22 VCPI 513/P/14): > 128 µg/mL
- MIC ([3]; 24 h, strain 23 VCPI 514/P/14): > 128 µg/mL
- MIC ([3]; 24 h, strain 24 VCPI 250/P/14, 24 h, read-out: MIC): 64 µg/mL (≈ 209 µM)
- MIC ([3]; 24 h, strain 25 VCPI 265/P/14): > 128 µg/mL
- MIC ([3]; 24 h, strain 26 VCPI 266/P/14): > 128 µg/mL
- MIC ([3]; 24 h, strain 27 VCPI 462/P/14): > 128 µg/mL
- MIC ([3]; 24 h, strain 28 VCPI 463/P/14): > 128 µg/mL
- MIC ([3]; 24 h, strain 29 VCPI 467/P/14): > 128 µg/mL
- MIC ([3]; 24 h, strain 30 VCPI 471a/P/14): > 128 µg/mL
- MIC ([3]; 24 h, strain 31 VCPI 478/P/14): > 128 µg/mL
- MIC ([3]; 24 h, strain 32 VCPI 518/P/14): > 128 µg/mL
- MIC ([3]; 24 h, strain 33 VCPI 550/P/14): > 128 µg/mL
- MIC ([3]; 24 h, strain 34 VCPI 714/P/14): > 128 µg/mL
- MIC ([3]; 24 h, strain 35 VCPI 717/P/14, 24 h, read-out: MIC): 4 µg/mL (≈ 13.1 µM)
- MIC ([3]; 24 h, strain 36 VCPI 1060/P/14): > 128 µg/mL
- MIC ([3]; 24 h, strain 37 VCPI 74/P/15): > 128 µg/mL
- MIC ([3]; 24 h, strain 38 VCPI 213/P/15): > 128 µg/mL
- MIC ([3]; 48 h, strain 1 VPCI 669/P/12): > 128 µg/mL
- MIC ([3]; 48 h, strain 2 VCPI 671/P/12): > 128 µg/mL
- MIC ([3]; 48 h, strain 3 VCPI 674/P/12): 128 µg/mL (≈ 418 µM)
- MIC ([3]; 48 h, strain 4 VCPI 683/P/12): > 128 µg/mL
- MIC ([3]; 48 h, strain 5 VCPI 692/P/12): > 128 µg/mL
- MIC ([3]; 48 h, strain 6 VCPI 712/P/12): 128 µg/mL (≈ 418 µM)
- MIC ([3]; 48 h, strain 7 VCPI 471/P/13): > 128 µg/mL
- MIC ([3]; 48 h, strain 8 VCPI 475/P/13, 48 h, read-out: MIC): 64 µg/mL (≈ 209 µM)
- MIC ([3]; 48 h, strain 9 VCPI 478/P/13): 128 µg/mL (≈ 418 µM)
- MIC ([3]; 48 h, strain 10 VCPI 479/P/13): 128 µg/mL (≈ 418 µM)
- MIC ([3]; 48 h, strain 11 VCPI 480/P/13): > 128 µg/mL
- MIC ([3]; 48 h, strain 12 VCPI 482/P/13): > 128 µg/mL
- MIC ([3]; 48 h, strain 13 VCPI 483/P/13): 128 µg/mL (≈ 418 µM)
- MIC ([3]; 48 h, strain 14 VCPI 1130/P/13, 48 h, read-out: MIC): 64 µg/mL (≈ 209 µM)
- MIC ([3]; 48 h, strain 15 VCPI 1132/P/13): 128 µg/mL (≈ 418 µM)
- MIC ([3]; 48 h, strain 16 VCPI 1133/P/13): > 128 µg/mL
- MIC ([3]; 48 h, strain 17 VCPI 105/P/14): 128 µg/mL (≈ 418 µM)
- MIC ([3]; 48 h, strain 18 VCPI 107/P/14): > 128 µg/mL
- MIC ([3]; 48 h, strain 19 VCPI 510/P/14): > 128 µg/mL
- MIC ([3]; 48 h, strain 20 VCPI 511/P/14): > 128 µg/mL
- MIC ([3]; 48 h, strain 21 VCPI 512/P/14): > 128 µg/mL
- MIC ([3]; 48 h, strain 22 VCPI 513/P/14): > 128 µg/mL
- MIC ([3]; 48 h, strain 23 VCPI 514/P/14): > 128 µg/mL
- MIC ([3]; 48 h, strain 24 VCPI 250/P/14): > 128 µg/mL
- MIC ([3]; 48 h, strain 25 VCPI 265/P/14): > 128 µg/mL
- MIC ([3]; 48 h, strain 26 VCPI 266/P/14): > 128 µg/mL
- MIC ([3]; 48 h, strain 27 VCPI 462/P/14): > 128 µg/mL
- MIC ([3]; 48 h, strain 28 VCPI 463/P/14): > 128 µg/mL
- MIC ([3]; 48 h, strain 29 VCPI 467/P/14): > 128 µg/mL
- MIC ([3]; 48 h, strain 30 VCPI 471a/P/14): > 128 µg/mL
- MIC ([3]; 48 h, strain 31 VCPI 478/P/14): > 128 µg/mL
- MIC ([3]; 48 h, strain 32 VCPI 518/P/14): > 128 µg/mL
- MIC ([3]; 48 h, strain 33 VCPI 550/P/14): > 128 µg/mL
- MIC ([3]; 48 h, strain 34 VCPI 714/P/14): > 128 µg/mL
- MIC ([3]; 48 h, strain 35 VCPI 717/P/14): > 128 µg/mL
- MIC ([3]; 48 h, strain 36 VCPI 1060/P/14): > 128 µg/mL
- MIC ([3]; 48 h, strain 37 VCPI 74/P/15): > 128 µg/mL
- MIC ([3]; 48 h, strain 38 VCPI 213/P/15): > 128 µg/mL
- number of resistant isolates ([3]; of 38 C. auris isolates): 38
